We go through 1 substance from patent US20260152497A1, “MIDAZO[4,5-c]QUINOLINE-4-AMINE COMPOUNDS AND CONJUGATES THEREOF, THEIR PREPARATION, AND THEIR [sequence] APPLICATIONS” (SANOFI, priority 2021, published 2026).

In this experiment the test system is human MKN-45 tumor cells. As to the kind of experiment: Incucyte Immune Cell Killing Assay, co-culture of human PBMC and NucLight red-labelled MKN-45 tumor cells. The format is cell-based. The conditions noted are these: 10 nM, 120-hour incubation, PBMC + MKN-45 co-culture. The procedure: The conjugates according to the disclosure were subjected to pharmacological testing for determining their tumor cell killing activity via immune cell activation.
The below tests involving measuring the in vitro tumor cell killing activity of some compounds of the disclosure were carried out using Incucyte® Immune Cell Killing Assay consisting in co-culture of human peripheral blood mononuclear cells (PBMC) and NucLight red-labelled human MKN-45 tumor cells. This Immune Cell Killing Assay allows for direct, measurements of immune cell-mediated killing of MKN-45 tumor cells with the combination of real-time, automated analysis of tumor cell number.
MKN-45 (stomach tumor cell line, DSMZ Germany) were used as they present a very high expression of CEACAM5 (Antigen Binding Capacity ≈3.10E5 receptors per cell). To count living MKN-45 cells in real time without altering their function, MKN45 cells have been stained thanks to a lentiviral-based labeling reagent enabling expression of a nuclear-restricted red (Nuclight Red) fluorescent protein. […]
The plates were then placed in the Incucyte® live-cell analysis apparatus. The Incucyte® Cell-by-Cell Analysis module was used to quantify the number of NucLight red-labelled MKN-45 tumor cells over-time. […]

Consider CEACAM5_Tusamitamab-PEG24-R848, for which the “% of Immune cell-mediated killing activity” value was found to be 57%.
